Earlier results as cited in patent US20250120404A1, “BOTANICAL PESTICIDE COMPOSITIONS” (Mosquito Squad Franchising SPE LLC, priority 2023, published 2025).

Test system: mosquitoes
Conditions: average reported toxicity from literature, concentration/biomass

| Compound | Concentration of Oil Extract Necessary for Mosquito Death |
| --- | --- |
| C=CCc1ccc(O)c(OC)c1 [Eugenol] | Varying levels |
| CCC(=O)OCCc1ccccc1 [2-phenethyl proprionate] | Varying levels |
| CC(C)=CCC/C(C)=C/CO [Geraniol] | Varying levels |
